# Reference: article PMC3818701 (The Pediatric infectious disease journal, 2013)
# Like-named read-outs stand apart in the source and are kept apart here. Numbered stars: 1 amine (or outer) side, 2 acyl side, 3 side chain; on linkers, the order of the positions; unused ones are H or OH. Bridge positions count the residues as written; N and C are the ends. Square brackets hold non-standard residues; d marks the D form. Peptide text beside a SMILES is read from it. * marks the point of attachment. hTyr(3S-OH,4S-OH,3'-OSO3H) = N[C@H](C(=O)O)[C@H](O)[C@@H](O)c1ccc(O)c(OS(=O)(=O)O)c1; Orn(4R-OH,5R-OH) = O=C([C@H](C[C@@H](O)[C@@H](O)N[*:3])N[*:1])[*:2]; Pro(3S-OH,4S-Me) = C[C@H]1CN[C@H](C(=O)O)[C@H]1O; X1 = CCCCCOc1ccc(-c2cc(-c3ccc(C(=O)*)cc3)no2)cc1; Gln(3R-OH) = NC(=O)C[C@@H](O)[C@H](N)C(=O)O; Hyp = O=C(O)[C@@H]1C[C@@H](O)CN1
# How the values were obtained:
# [1] = cited from earlier work
# [2] = Plasma micafungin pharmacokinetics on day 7, Studies 2101 and 2102; type: in vivo, human; settings: for Cmax / tmax / AUCtau / CLss / CLss/wt: day 7 plasma
# [3] = adults, cited from earlier work
# Safety assessments = type: in vivo, human; settings: for AE leading to discontinuation / Any AE / Any SAE / Deaths: SAF, number of children (%)
# [4] = cited from earlier work; for Cmax / Mean weight-adjusted CLss: children; for Mean AUCtau: febrile, neutropenic children with deep mycoses
# [5] = pooled analysis of Phase I, II, III trials, 296 children
# [6] = Study 2101, 3 mg/kg i.v. once daily, 6–11 years (n = 4), min–max
# [7] = Study 2101, 3 mg/kg i.v. once daily, 12–16 years (n = 8), median
# [8] = Study 2101, 3 mg/kg i.v. once daily, 12–16 years (n = 8), min–max
# [9] = Study 2101, 4.5 mg/kg i.v. once daily, 2–5 years (n = 8), median
# [10] = Study 2101, 4.5 mg/kg i.v. once daily, 2–5 years (n = 8), min–max
# [11] = Study 2101, 4.5 mg/kg i.v. once daily, 6–11 years (n = 3), median
# [12] = Study 2101, 4.5 mg/kg i.v. once daily, 6–11 years (n = 3), min–max
# [13] = Study 2101, 4.5 mg/kg i.v. once daily, 12–16 years (n = 1), mean
# [14] = Study 2101, 4.5 mg/kg i.v. once daily, 12–16 years (n = 1), median
# [15] = Study 2101, 3 mg/kg, 6–11 years (n = 13)
# [16] = Study 2101, 3 mg/kg, 12–16 years (n = 12)
# [17] = Study 2101, 4.5 mg/kg, 2–5 years (n = 31)
# [18] = Study 2101, 4.5 mg/kg, 6–11 years (n = 20)
# [19] = Study 2102, 4.5 mg/kg, 4 months–<2 years (n = 9)
structure (smiles),measurement,setting,value
"CCCCCOc1ccc(-c2cc(-c3ccc(C(=O)N[C@H]4C[C@@H](O)[C@@H](O)NC(=O)[C@@H]5[C@@H](O)[C@@H](C)CN5C(=O)[C@H]([C@H](O)CC(N)=O)NC(=O)[C@H]([C@H](O)[C@@H](O)c5ccc(O)c(OS(=O)(=O)O)c5)NC(=O)[C@@H]5C[C@@H](O)CN5C(=O)[C@H]([C@@H](C)O)NC4=O)cc3)no2)cc1 [micafungin] (X1-[Orn(4R-OH,5R-OH)]T[Hyp][hTyr(3S-OH,4S-OH,3'-OSO3H)][Gln(3R-OH)][Pro(3S-OH,4S-Me)]; lactam 1-C)",Overall incidence of liver function abnormalities,[1]; pooled analysis of 3028 adult and pediatric patients,≤ 3%
same,Adverse events (AEs),[1]; [5],92%
same,Serious adverse events (SAEs),[1]; [5],~34%
same,AEs related to micafungin treatment,"[1]; pooled analysis, 296 children",27%
same,Related AEs/SAEs leading to discontinuation of therapy,"[1]; pooled analysis, 296 children",2%
same,SAEs related to micafungin treatment,"[1]; pooled analysis, n = 14/296 children",5%
same,Cmax,"[2]; Study 2101, 3 mg/kg i.v. once daily, 6–11 years (n = 4), mean (SD), SD",20.8 (4.1) µg/mL
same,tmax,"[2]; Study 2101, 3 mg/kg i.v. once daily, 6–11 years (n = 4), median",1.1 h
same,AUCtau,[2]; [6],191.8 to 300.1 µg·h/mL
same,CLss,[2]; [6],344.8 to 625.7 mL/h
same,CLss/wt,[2]; [6],0.167 to 0.257 mL/min/kg
same,Cmax,[2]; [6],16.8 to 24.8 µg/mL
same,tmax,[2]; [6],1.0 to 1.2 h
same,CLss,[2]; [7],757.2 mL/h
same,tmax,[2]; [7],1.1 h
same,AUCtau,[2]; [8],158.9 to 240.1 µg·h/mL
same,CLss,[2]; [8],512.6 to 944.2 mL/h
same,CLss/wt,[2]; [8],0.158 to 0.317 mL/min/kg
same,Cmax,[2]; [8],12.2 to 44.5 µg/mL
same,tmax,[2]; [8],1.0 to 2.0 h
same,CLss,[2]; [9],222.9 mL/h
same,Cmax,[2]; [9],21.9 µg/mL
same,AUCtau,[2]; [10],110.0 to 335.4 µg·h/mL
same,CLss,[2]; [10],132.7 to 490.9 mL/h
same,CLss/wt,[2]; [10],0.223 to 0.682 mL/min/kg
same,Cmax,[2]; [10],8.4 to 28.7 µg/mL
same,tmax,[2]; [10],1.0 to 2.1 h
same,AUCtau,[2]; [11],264.4 µg·h/mL
same,CLss,[2]; [11],332.1 mL/h
same,Cmax,[2]; [11],20.2 µg/mL
same,tmax,[2]; [11],2.1 h
same,AUCtau,[2]; [12],245.7 to 325.2 µg·h/mL
same,CLss,[2]; [12],255.3 to 384.7 mL/h
same,CLss/wt,[2]; [12],0.23 to 0.305 mL/min/kg
same,Cmax,[2]; [12],17.9 to 24.0 µg/mL
same,tmax,[2]; [12],2.0 to 2.1 h
same,AUCtau,[2]; [13],339.0 µg·h/mL
same,CLss,[2]; [13],306.8 mL/h
same,CLss/wt,[2]; [13],0.222 mL/min/kg
same,Cmax,[2]; [13],24.9 µg/mL
same,tmax,[2]; [13],1.1 h
same,AUCtau,[2]; [14],339.0 µg·h/mL
same,CLss,[2]; [14],306.8 mL/h
same,CLss/wt,[2]; [14],0.222 mL/min/kg
same,Cmax,[2]; [14],24.9 µg/mL
same,tmax,[2]; [14],1.1 h
same,"CLss/wt, single child with highest value","[2]; Study 2101, 4.5 mg/kg, 2–5 years, single child, day 7",0.682 mL/min/kg
same,AUC(0-t),"[2]; human, plasma, iv, 4.5 mg/kg, Mean AUCtau, Study 2102",~300 µg·h/mL
same,AUCtau,[3]; 100 mg/day,101.6 µg·h/mL
same,AUCtau,[3]; 150 mg/day,166.7 µg·h/mL
same,Deaths considered related to micafungin treatment or to fungal infection,Safety assessments; Studies 2101 and 2102,None
same,Liver function abnormalities,Safety assessments; Study 2101 (Table 3),4–6%
same,AE leading to discontinuation,Safety assessments; [15],0
same,Any AE,Safety assessments; [15],9 (69)
same,Any SAE,Safety assessments; [15],1 (8)
same,Deaths,Safety assessments; [15],0
same,AE leading to discontinuation,Safety assessments; [16],2 (17)
same,Any AE,Safety assessments; [16],11 (92)
same,Any SAE,Safety assessments; [16],3 (25)
same,Deaths,Safety assessments; [16],1 (8)
same,AE leading to discontinuation,Safety assessments; [17],1 (3)
same,Any AE,Safety assessments; [17],25 (81)
same,Any SAE,Safety assessments; [17],3 (10)
same,Deaths,Safety assessments; [17],0
same,AE leading to discontinuation,Safety assessments; [18],1 (5)
same,Any AE,Safety assessments; [18],16 (80)
same,Any SAE,Safety assessments; [18],2 (10)
same,Deaths,Safety assessments; [18],2 (10)
same,AE leading to discontinuation,"Safety assessments; Study 2101, Total (n = 78)",4 (5)
same,Any AE,"Safety assessments; Study 2101, Total (n = 78)",62 (80)
same,Any SAE,"Safety assessments; Study 2101, Total (n = 78)",9 (12)
same,Deaths,"Safety assessments; Study 2101, Total (n = 78)",3 (4)
same,AEs that led to permanent discontinuation of micafungin,"Safety assessments; Study 2101, four children, all possibly or probably related",5%
same,Permanent discontinuation due to hypomagnesemia,"Safety assessments; Study 2101, n = 1/78",1%
same,Permanent discontinuation due to pyrexia,"Safety assessments; Study 2101, n = 1/78",1%
same,Permanent discontinuation due to infusion-associated symptoms,"Safety assessments; Study 2101, n = 2/78",3%
same,SAEs considered related to micafungin treatment,"Safety assessments; Study 2101, n = 2/78",3%
same,AE considered related to micafungin: hypomagnesemia,"Safety assessments; Study 2101, n = 5/78",6%
same,Children with SAEs who recovered with no residual effects,"Safety assessments; Study 2101, n = 6/9",67%
same,AE considered related to micafungin: pyrexia,"Safety assessments; Study 2101, n = 7/78",9%
same,"AE considered related to micafungin: infusion-associated symptoms (hypotension, hypertension, cyanosis)","Safety assessments; Study 2101, n = 9/78",12%
same,Children experiencing SAEs other than death,"Safety assessments; Study 2101, n = 9/78",12%
same,AE vomiting,"Safety assessments; Study 2101, n = 10/78",13%
same,AE hypokalemia,"Safety assessments; Study 2101, n = 11/78",14%
same,AE pyrexia,"Safety assessments; Study 2101, n = 15/78",19%
same,Children experiencing at least one AE,"Safety assessments; Study 2101, n = 62/78",80%
same,AE leading to discontinuation,Safety assessments; [19],2 (22)
same,Any AE,Safety assessments; [19],9 (100)
same,Any SAE,Safety assessments; [19],5 (56)
same,Deaths,Safety assessments; [19],1 (11)
same,SAEs considered related to micafungin treatment,"Safety assessments; Study 2102, n = 1/9 (pathological fracture, possibly related)",11%
same,Children with SAEs who recovered with no residual effects,"Safety assessments; Study 2102, n = 4/5",80%
same,Children experiencing SAEs other than death,"Safety assessments; Study 2102, n = 5/9",56%
same,Abnormal liver function tests (NOS) considered related to micafungin,"Safety assessments; Study 2102, one child of 9",11%
same,AEs that led to permanent discontinuation of micafungin,"Safety assessments; Study 2102, two children",22%
same,Tolerability,"Safety assessments; once-daily 3 mg/kg and 4.5 mg/kg, children and adolescents with proven, probable, or suspected Candida infection",well tolerated
same,Cmax,[4]; 3 mg/kg,30400 ng/mL
same,Mean weight-adjusted CLss,[4]; 3 mg/kg,0.283 mL/min/kg
same,Cmax,[4]; 4 mg/kg,43500 ng/mL
same,Mean weight-adjusted CLss,[4]; 4 mg/kg,0.237 mL/min/kg
same,Mean AUCtau,[4]; 3 mg/kg,190.5 µg·h/mL
same,Mean AUCtau,[4]; 4.0 mg/kg,301.9 µg·h/mL
